The values below come from US7523563B2, “Process for preparing certain hydrohalide metal complex compounds having a specific coarse structure” (Verla-Pharm Arzneimittelfabrik Apotheker H.J.v. Ehrlich …, priority 2005, dated 2009).

Data set [1] in a line: Flow time and flowability, conical flow funnel, 2.9.16 Method Ph. Eur. In kind it is physicochemical. To be noted: 100 g, time for whole sample to flow out of the funnel, two samples each; hydrochloride. As for the experimental part:
The flowability of granular magnesium L-aspartate hydrochloride prepared by the process according to the invention was compared with a finely powdered magnesium L-aspartate hydrochloride prepared by a standard process (disclosed in DE 32 38 118 A1). The test arrangement consisted of a conical flow funnel with a height of 22.5 cm, an upper internal diameter of 7.3 cm and a lower internal diameter of 8.2 mm. The test was carried out by the 2.9.16 Method, Ph. Eur., 4th edition, main volume 2002, as follows. 100 g portions of material were put into the funnel. Opening of the funnel orifice was followed by assessment of the flowability, and the time for the whole sample to flow out of the funnel was determined. Two samples were measured in each case.

A short description of data set [2]: Water uptake capacity or hygroscopicity, desiccator at 75% relative humidity. To be noted: for percentage increase in weight: hydrochloride. The format is physicochemical. The text has this:
The hygroscopicity of granular magnesium L-aspartate hydrochloride prepared by the process according to the invention was compared with a finely powdered magnesium L-aspartate hydrochloride prepared by a standard process (disclosed in DE 32 38 118 A1). The test arrangement consisted of a desiccator which was adjusted to a relative humidity of 75% with a saturated sodium chloride solution. In each case a defined amount of sample was weighed out and the sample dish was placed in the desiccator. The percentage increase in weight of the weighed amount was determined after 2, 4, 5 and 20 hours.

A short description of data set [3]: Particle size distribution, comparative sieve analysis (Hosokawa Alpine air jet sieve). In kind it is physicochemical. The text has this: The particle size distribution of granular magnesium L-aspartate hydrochloride prepared by the process according to the invention was compared with a finely powdered magnesium L-aspartate hydrochloride prepared by a standard process (disclosed in DE 32 38 118 A1).

A short description of data set [4]: Dissolving properties, time until dissolution complete in water. The format is physicochemical. To be noted: 10 g in 250 ml of water, stirring 20 revolutions per min; hydrochloride. As for the experimental part:
The dissolving properties of granular magnesium L-aspartate hydrochloride prepared by the process according to the invention were compared with a finely powdered magnesium L-aspartate hydrochloride prepared by a standard process (disclosed in DE 32 38 118 A1). The test arrangement consisted of a glass beaker with stirring bar which was adjusted to 20 revolutions per min. 250 ml of water were introduced and then 10 g of test material were added with the stirrer motor running. The time until dissolution was complete was measured.

A short description of data set [5]: Apparent volume of the final product. The format is physicochemical. The protocol: A product with a very favourable apparent volume can be achieved in the process according to the invention for preparing the granular hydrohalide of the complex compound of relevance here. The apparent volume [volume of the uncompressed product (ml)/100 g of the product] is preferably in a range from 150 to 180 ml/100 g, with a particularly preferred apparent volume being about 170 ml/100 g.

The nature of data set [6]: Particle size distribution of the final product of Example 1. In kind it is physicochemical.
The conditions of data set [7]: background statement; cited from earlier work.
The mark [8] stands for this setting: listed as granular magnesium L-aspartate hydrochloride, hydrochloride.
Setting [9] is: sieve 63.0 μm, listed as process according to the present invention, hydrochloride.
Setting [10] is: sieve 90.0 μm, listed as process according to the present invention, hydrochloride.
The mark [11] stands for this setting: sieve 150.0 μm, listed as process according to the present invention, hydrochloride.
The mark [12] stands for this setting: listed as finely powdered magnesium L-aspartate hydrochloride, hydrochloride.
The mark [13] stands for this setting: sieve 63.0 μm, listed as standard process, hydrochloride.
Where [14] appears, read: sieve 90.0 μm, listed as standard process, hydrochloride.
Where [15] appears, read: sieve 150.0 μm, listed as standard process, hydrochloride.

Each structure is given as a SMILES string. “And” between values parts separate entries of the source, which are not always exact repeats. Identical values can stand only once.

For `Cl.N[C@@H](CC(=O)[O-])C(=O)[O-].[Mg+2]` [According to the invention, magnesium L-aspartate hydrochloride], the Flow time in data set [1] stood at 10 s. Moreover, the “hygroscopicity compared with a finely powdered product according to the prior art” value in data set [2] (2 to 20 hours) is “distinctly reduced”. The “percentage increase in weight” value in data set [2] (testing time 2 h) was 0.18% and 0.16%; in data set [2] (testing time 4 h), 0.33% and 0.30%; in data set [2] (testing time 5 h), 0.43% and 0.40%; in data set [2] (testing time 20 h), 1.74% and 1.63%. In addition, the “average particle size (d50)” value in data set [3] (setting [8]) stood at 250.8 μm. For the same compound, in data set [3] (setting [8]), the “maximum particle size (dmax)” value was found to be 448.7 μm. In data set [3] (setting [8]), the “minimum particle size (dmin)” value stood at 48.0 μm. The “1 − Q” value stood at 100.0 %-R in data set [3] (sieve 0 μm (receiver)); 99.8 %-R in data set [3] (setting [9]); 99.2 %-R in data set [3] (setting [10]); 89.0 %-R in data set [3] (setting [11]); 27.6 %-R in data set [3] (sieve 212.0 μm); 9.2 %-R in data set [3] (sieve 315.0 μm). In addition, the “1 − Q” value is on record as 3.8 %-R in data set [3] (sieve 400.0 μm) and 0.8 %-R in data set [3] (sieve 500.0 μm). Moreover, the Q in data set [3] (sieve 0 μm (receiver)) is 0.0 %-D; in data set [3] (setting [9]) it was 0.2 %-D; in data set [3] (setting [10]), 0.8 %-D; in data set [3] (setting [11]) it was 11.0 %-D; in data set [3] (sieve 212.0 μm) it was 72.4 %-D; in data set [3] (sieve 315.0 μm), 90.8 %-D. Moreover, the figures for the Q in data set [3] (sieve 400.0 μm) and in data set [3] (sieve 500.0 μm) were 96.2 %-D and 99.2 %-D, respectively. Besides, the q in data set [3] (sieve 0 μm (receiver), listed as process according to the present invention, hydrochloride) stood at 0.2 %-B; in data set [3] (setting [9]) it was 0.6 %-B; in data set [3] (setting [10]), 10.2 %-B; in data set [3] (setting [11]) it was 61.4 %-B; in data set [3] (sieve 212.0 μm), 18.4 %-B; in data set [3] (sieve 315.0 μm), 5.4 %-B. In addition, the q in data set [3] (sieve 400.0 μm) came out at 3.0 %-B; in data set [3] (sieve 500.0 μm) it was 0.8 %-B. The Dissolving time in data set [4] is 3 min and 2 min.
Consider `Cl.N[C@@H](CC(=O)[O-])C(=O)[O-].[Mg+2]` [Example 1, magnesium L-aspartate hydrochloride], for which, in data set [5], the “apparent volume [volume of the uncompressed product (ml)/100 g of the product]” value turned out to be 170 ml/100 g. Also, the “particle size distribution, fraction of particles” value in data set [6] (100-140 μm) amounted to 19.48%; in data set [6] (140-250 μm) it was 57.84%; in data set [6] (250-315 μm), 10.81%; in data set [6] (315-400 μm), 4.78%; in data set [6] (400-500 μm), 0.90%; in data set [6] (<100 μm), 6.19%.
In the case of `Cl.N[C@@H](CC(=O)[O-])C(=O)[O-].[Mg+2]` [Standard, magnesium L-aspartate hydrochloride, reference compound], the “percentage increase in weight” value is 0.35% and 0.30% in data set [2] (testing time 2 h); 0.63% and 0.55% in data set [2] (testing time 4 h); 0.72% and 0.71% in data set [2] (testing time 5 h); 3.06% and 2.70% in data set [2] (testing time 20 h). In data set [3] (setting [12]), the “average particle size (d50)” value was determined as 54.9 μm. Further, the “maximum particle size (dmax)” value in data set [3] (setting [12]) amounted to 260.0 μm. Further, the “minimum particle size (dmin)” value in data set [3] (setting [12]) was 0.7 μm. Besides, the “1 − Q” value came to 100.0 %-R in data set [3] (sieve 0 μm (receiver)), 44.6 %-R in data set [3] (setting [13]), 20.8 %-R in data set [3] (setting [14]) and 5.2 %-R in data set [3] (setting [15]). Further, the Q is listed as 0.0 %-D in data set [3] (sieve 0 μm (receiver)), 55.4 %-D in data set [3] (setting [13]), 79.2 %-D in data set [3] (setting [14]) and 94.8 %-D in data set [3] (setting [15]). The q came to 55.4 %-B in data set [3] (sieve 0 μm (receiver), listed as standard process, hydrochloride); 23.8 %-B in data set [3] (setting [13]); 15.6 %-B in data set [3] (setting [14]); 5.2 %-B in data set [3] (setting [15]). Further, the Dissolving time in data set [4] is recorded as 7 min.
As for `Cl.N[C@@H](CC(=O)[O-])C(=O)[O-].[Mg+2]` [Magnesium L-aspartate hydrochloride], the “humidity at which the substance liquefies” value in data set [7] is given as “more than 50%”.
